Results: patent publication US10405750B2, “Nonradiative voltage-sensitive dye for imaging neuronal action potential” (Washington University, priority 2014, dated 2019)

Assays:
[1] = commercially available dyes to be tested; cited from earlier work

Compound | Abs.: peak absorption wavelength [1] [nm] | other results
Nc1ccncc1 [4-AP, 4-am inopyridine] | – | PA waveforms (DPA-stained cortex) after 4-AP (mouse brains; mouse, in vivo): large-amplitude high-frequency waveforms consistent with epileptiform discharges; behavioural effect in mice (mouse brains; mouse, in vivo): signs of convulsions
CCN(CC)c1ccc2cc(/C=C/c3cc[n+](CC[N+](C)(C)C)cc3)ccc2c1.[Br-].[Br-] [Di-2-ANEPEQ] | 517 | –
CCCCCCCCCCCCN(CCCCCCCCCCCC)c1ccc2cc(/C=C/c3cc[n+](CCC[N+](C)(C)C)cc3)ccc2c1.[Br-].[Br-] [Di-12-ANEPPQ] | 519 | –
CCCCN1C(=O)/C(=C/C=C/C=C2/C=CN(CCCCS(=O)(=O)[O-])c3ccccc32)SC1=S.[Na+] [NK 2761] | 716 | –
CCCCN(CCCC)c1ccc(/C=C/C=C/c2cc[n+](CCCCS(=O)(=O)[O-])cc2)cc1 [RH 160] | 530 | –
CCCCN(CCCC)c1ccc(/C=C/C=C/C=C/c2cc[n+](CCCCS(=O)(=O)[O-])cc2)cc1 [RH 237] | 528 | –
CCN(CC)c1ccc(/C=C/C=C/c2cc[n+](CCC[N+](CC)(CC)CC)cc2)cc1.[Br-].[Br-] [RH 414] | 532 | –
CCN(CC)c1ccc(/C=C/C=C/c2cc[n+](CC(O)C[N+](C)(C)CCO)cc2)cc1.[Br-].[Br-] (stereo not shown) [RH 795] | 530 | –
FC(F)OC(Cl)C(F)(F)F (stereo not shown) [isoflurane] | – | PA signal (DPA-stained cortex) after prolonged isoflurane (mouse brains; 5% isoflurane, prolonged exposure (30 minutes), after 4-AP): suppression of photoacoustic signal change
